Experimental data published in US20140066394A1, “Substituted 6-(Benzylamino) Purine Riboside Derivatives, Use Thereof and Compositions Containing These Derivatives” (Biopatterns, S.R.O, priority 2009, published 2014).

What was measured:
Type in all cases: cell-based
β-adrenergic receptors = experiment: Isoproterenol-induced cAMP synthesis in rat C6 glioma (anti-inflammatory activity)
Experimental: Anti-inflammatory activity of several of the 2-substituted 6-benzylaminopurine riboside derivatives of this invention was determined; kinetin riboside was also evaluated as a control. Rat C6 glioma (ATCC No. CCL107) was cultivated in monolayer in serum-free chemically defined medium containing Ham's F10/minimal essential medium (1:1 v/v), 2 mM L-glutamine, 1% (v/v) minimal essential medium vitamins (100×), 1% (v/v) minimal essential medium nonessential amino acids (100×), 100 U/mL penicillin, […], and 30 nM sodium selenite. Incubation was performed at 37° C. in a humidified atmosphere. The assays were performed in the logaritmic growth phase at a density of 2.5×10^5 cells/cm^2.
Intracellular cAMP synthesis was induced by addition of 5 mM (−)-isoproterenol; various amounts of test compounds were added at the same time as the (−)-isoproterenol. After […] incubation at 37° C., the medium was removed and the cellular amount of cAMP was determined using the cAMP-enzyme immunoassay kit from Amersham. The I50 value was determined from a dose-response curve in duplicate. The effect of nine purine analogues was measured after simultaneous addition with isoproterenol.
As P2Y1-like and A2 purinergic receptors, negatively and positively coupled to adenylate cyclase respectively, are present on rat C6 glioma as to be determined if the modulation of the synthesis of cAMP is due to inhibition of the activation of β-adrenergic receptors by isoproterenol are due to activation of purinergic receptors.

neutrophils = experiment: Neutrophil IL8 release, ELISA; conditions: Homo sapiens, primed neutrophils, ELISA (FIG. 3)
Experimental: Neutrophils were cultured at 2×10^6 cells/ml in RPMI1640 medium containing human serum antibiotics and 20 ng/ml TNFα for 10 minutes prior to addition of a range of concentrations of compound 10. Release of IL8 was monitored after a 4 h period by ELISA. Data are mean of duplicate measurements representative of 5 separate experiments.
Anti-inflammatory effects against neutrophils were determined by assessing effects of several of the compounds on neutrophil inflammatory activity (superoxide generation, secretion of chemoattractant IL8 and degranulation to release myeloperoxidase). Neutrophils were isolated from human blood to a purity of greater than 95% and were cultured in RPMI1640 medium containing 2% human AB serum, 2 mM L-glutamine and antibiotics (100 U/ml penicillin, […] streptomycin). Neutrophils were primed for 30 minutes with 50 ng/ml GM-CSF prior to treatment with the bacterial stimulant fMLP (100 ng/ml) and measurement of superoxide generation in a lucigenin based assay (see Pongracz J and Lord J M 1998, Biochem. Biophys. Res. Commun. 247, 624-629) and release of IL8 and myeloperoxidase using an ELISA method. The novel compounds were added to the culture at a range of concentrations (0.1-100 μM) 10 minutes prior to addition of fMLP. […]

[1] = tested on: human umbilical vein endothelial cells (HUVEC); experiment: Neutrophil mediated damage to endothelial cells (HUVEC viability, trypan blue); set-up: death of HUVEC treated with TNF-primed neutrophils: dose or concentration left out as unconfirmed
Experimental: HUVEC were cultured to confluence in tissue culture plates and incubated overnight with neutrophils treated with 20 ng/ml TNFα (+TNF),
[…] Viable cells remain attached to the plastic wells and are visualised by phase contrast light microscopy. The image shown is representative of 3 separate experiments.
ANCA are predominantly IgG autoantibodies directed against constituents of primary granules of neutrophils (PR3 and MPO). ANCA associated vasculitis is the most common primary systemic small-vessel vasculitis in adults. The common pathology of this disease is focal necrotizing lesions of blood vessels and may affect different vessels and organs. […] Neutrophils were cultured for 10 hours in RPMI1640 medium containing 2% human AB serum, 2 mM L-glutamine and antibiotics (100 U/ml penicillin, […] streptomycin) and their apoptosis determined by staining with Giemsa stain and observing an apoptotic morphology by light microscopy. […] The ability of compound 10 to inhibit ANCA-induced neutrophil inflammatory functions was also determined Neutrophils were cultured in RPMI1640 medium containing 2% human AB serum, 2 mM L-glutamine and antibiotics (100 U/ml penicillin, […] streptomycin). […] ANCA stimulated degranulation of neutrophils was assessed by release of myeloperoxidase in to the medium over a 30 minute period, with MPO measured by ELISA. […]

Effect (modulation of isoproterenol-induced cAMP synthesis) (β-adrenergic receptors; added simultaneously with (−)-isoproterenol): inhibition | IC50 (β-adrenergic receptors; cellular cAMP by enzyme immunoassay, dose-response curve in duplicate, read-out: I50): 7.5 ± 1 µM | IC50 (neutrophils): 0.05 µM
Structure (SMILES): COc1cccc(CNc2nc(Cl)nc3c2ncn3C2OC(CO)C(O)C2O)c1O (centres unmarked) [Compound 10, 2-Chloro-6-(2-hydroxy-3-methoxybenzylamino)purine riboside]
HUVEC cell death in the presence of ANCA ([1]; ANCA-activated TNF primed-neutrophils, 24 h (90% without compound)): 50% | death of HUVEC treated with TNF-primed neutrophils ([1]; overnight / 24 h, without ANCA): completely block the death of HUVEC
